Two compounds from patent US20110171174A1, “Synergistic Combinations of a Macrocyclic Inhibitor of HCV and a Nucleoside” (ORTHO-MCNEIL-JANSSEN PHARMACEUTICALS, INC., priority 2008, published 2011) can be followed below.

Each structure is given as a SMILES string.

The assay deals with HCV replicon (Huh-7 luc/neo cells, NS3-NS5B regions of HCV type 1b). Kind of assay: HCV replicon assay (Huh-Luc cells, luciferase read-out). The class given is cell-based. The conditions noted are these: Hepatitis C virus, Huh-7, 72 h, three days incubation, luciferase activity, read-out: average EC50 value in the HCV replicon test. An excerpt:
The in vitro antiviral activity against HCV of the compound of formula I or of formula II can be tested in a cellular HCV replicon system based on Lohmann et al. (1999) Science 285:110-113, with the further modifications described by Krieger et al. (2001) Journal of Virology 75: 4614-4624 (incorporated herein by reference), which is further exemplified in the examples section. This model, while not a complete infection model for HCV, is widely accepted as the most robust and efficient model of autonomous HCV RNA replication currently available. The in vitro antiviral activity against HCV can also be tested by enzymatic tests.
The compounds of formula I were examined for activity in the inhibition of HCV RNA replication in a cellular assay. […] The cellular assay was based on a bicistronic expression construct, as described by Lohmann et al. (1999) Science vol. […]
The replicon cells were plated in 384 well plates in the presence of the test and control compounds which were added in various concentrations. Following an incubation of three days, HCV replication was measured by assaying luciferase activity (using standard luciferase assay substrates and reagents, and a Perkin Elmer ViewLux™ ultraHTS microplate imager). […] The inhibitory activity of the compound was monitored on the Huh-Luc cells, enabling a dose-response curve for each test compound. […]
On the technique in general: In antiviral work, replicon cells carry a viral genome segment that copies itself.

What is called EC50 is the concentration at which the effect is half-maximal. Consider `C[C@@H]1[C@H](n2ccc(N)nc2=O)O[C@@](CO)(N=[N+]=[N-])[C@H]1O` [compound II, 4-amino-1-((2R,3 S,4S,5R)-5-azido-4-hydroxy-5-hydroxymethyl-3-methyltetrahydro-furan-2-yl)-1H-pyrimidin-2-one], for which the EC50 is 5 µM. Consider `COc1ccc2c(O[C@@H]3C[C@H]4C(=O)N[C@]5(C(=O)NS(=O)(=O)C6CC6)C[C@H]5C=CCCCCN(C)C(=O)[C@@H]4C3)cc(-c3nc(C(C)C)cs3)nc2c1C` (stereo in doubt) [compound I, (1R,4R,6S,15R,17R)-cis-N-[17-[2-(4-isopropylthiazole-2-yl)-7-methoxy-8-methyl-quinolin-4-yloxy]-13-methyl-2,14-dioxo-3,13-diazatricyclo[13.3.0.0^4,6]octadec-7-ene-4-carbonyl](cyclopropyl)sulfonamide], for which the EC50 came out at 0.008 µM.
